ChEMBL document CHEMBL5505987 (Eur J Med Chem, 2024)
Activity calls are given as the source filed them. The rule behind the calls is not given here.

How the values were obtained:
HeLa = assay: Cytotoxicity against human HeLa cells assessed as cell viability by MTT assay; type: functional, cell-based
MCF7 = assay: Cytotoxicity against human MCF7 cells assessed as cell viability by MTT assay; type: functional, cell-based
MDA-MB-231 [1] = assay: Anti-tumor activity against human MDA-MB-231 cells assessed as change in TGF-beta1/Smad signaling pathway by measuring increase in p-Smad2 level after 24 hrs incubation by Western blot analysis; type: functional, cell-based; settings: dose 1-4 µM
MDA-MB-231 [2] = assay: Anti-tumor activity against human MDA-MB-231 cells assessed as change in expression of genes involved in TGF-beta1/Smad signaling pathway measured after 24 hrs incubation by RNA-Seq analysis; type: functional, cell-based
MDA-MB-231 [3] = assay: Induction of apoptosis in human MDA-MB-231 cells assessed as decrease in Bcl-2 expression at 1 to 4 uM incubated for 24 hrs by Western blotting analysis; type: functional, cell-based; settings: dose 1-4 µM
MDA-MB-231 [4] = assay: Anti-proliferative activity against human MDA-MB-231 cells assessed as cell viability measured after 24 hrs by MTT assay; type: functional, cell-based; settings: dose 1-8 µM
MDA-MB-231 [5] = assay: Induction of cell cycle arrest in human MDA-MB-231 cells assessed as upregulation of p21 protein expression at 1 to 4 uM measured after 24 hrs by immunoblotting assay; type: functional, cell-based; settings: dose 1-4 µM
MDA-MB-231 [6] = assay: Anti-tumor activity against human MDA-MB-231 cells assessed as change in TGF-beta1/Smad signaling pathway by measuring fluorescence intensity of p-Smad2 level at 2 to 4 uM after 24 hrs incubation by immunofluorescence staining assay; type: functional, cell-based; settings: dose 2-4 µM
4T1 [7] = assay: Induction of ROS production in mouse 4T1 cells at 1 to 4 uM incubated for 24 hrs by flow cytometry; type: functional, cell-based; settings: dose 1-4 µM
4T1 [8] = assay: Reduction of ATP level in mouse 4T1 cells incubated for 24 hrs by colorimetric based ATP Content Assay Kit; type: functional, cell-based; settings: dose 1-4 µM
4T1 [9] = assay: Antimigratory activity against mouse 4T1 cells assessed as decrease in migration of tumor cells into scratching region at 8 to 10 uM incubated for 12 to 24 hrs by Wound healing assay; type: functional, cell-based; settings: dose 8-10 µM, time 12-24 hrs
MDA-MB-231 [10] = assay: Anti-tumor activity against human MDA-MB-231 cells assessed as decrease in cell viability at 8 uM incubated for 24 hrs in presence of SB-431542 TGF-beta signaling inhibitor by MTT assay; type: functional, cell-based
MDA-MB-231 [11] = assay: Induction of mitochondrial membrane potential loss in human MDA-MB-231 cells assessed as increase in fluorescence intensity by JC-1 monomer assay; type: functional, cell-based; settings: dose 2-4 µM
MDA-MB-231 [12] = assay: Induction of cell cycle arrest in human MDA-MB-231 cells assessed as accumulation of cells at G0/G1 phase at 1 uM measured after 24 hrs by PI staining by flow cytometry; type: functional
MDA-MB-231 [13] = assay: Anti-tumor activity against human MDA-MB-231 cells assessed as change in TGF-beta1/Smad signaling pathway by measuring increase in TGF-beta1 level after 24 hrs incubation by Western blot analysis; type: functional, cell-based; settings: dose 1-4 µM
MDA-MB-231 [14] = assay: Induction of apoptosis in human MDA-MB-231 cells assessed as increase in apoptotic rate incubated for 24 hrs in presence of SB-431542 TGF-beta signaling inhibitor by Annexin V-FITC/PI double staining by flow cytometry; type: functional, cell-based
[15] = Cytotoxicity against human BEAS-2B cells assessed as cell viability by MTT assay; type: toxicity, cell-based
MDA-MB-231 [16] = assay: Induction of cell cycle arrest in human MDA-MB-231 cells assessed as reduction in CDK6 expression at 1 to 4 uM measured after 24 hrs by immunoblotting assay; type: functional, cell-based; settings: dose 1-4 µM
MDA-MB-231 [17] = assay: Induction of cell cycle arrest in human MDA-MB-231 cells assessed as reduction in cyclin D1 expression at 1 to 4 uM measured after 24 hrs by immunoblotting assay; type: functional, cell-based; settings: dose 1-4 µM
MDA-MB-231 [18] = assay: Anti-metastatic activity in human MDA-MB-231 cells assessed as decrease in ZEB1 protein level at 1 to 4 uM by Western blotting analysis; type: functional, cell-based; settings: dose 1-4 µM
4T1 [19] = assay: Induction of apoptosis in mouse 4T1 cells assessed as increase in apoptotic rate at 6 uM incubated for 24 hrs by Annexin V-FITC/PI double staining by flow cytometry; type: functional
4T1 [20] = assay: Induction of apoptosis in mouse 4T1 cells assessed as increase in apoptotic rate at 1.5 uM incubated for 24 hrs by Annexin V-FITC/PI double staining by flow cytometry; type: functional
A549 = assay: Cytotoxicity against human A549 cells assessed as cell viability by MTT assay; type: functional, cell-based
MDA-MB-231 [21] = assay: Anti-tumor activity against human MDA-MB-231 cells assessed as change in TGF-beta1/Smad signaling pathway by measuring increase in p-Smad3 level after 24 hrs incubation by Western blot analysis; type: functional, cell-based; settings: dose 1-4 µM
4T1 [22] = assay: Inhibition of colony formation in mouse 4T1 cells assessed as reduction in colony formation treated for 10 days medium refreshed every two days by crustal violet based assay; type: functional, cell-based; settings: time 10.0 day
MDA-MB-231 [23] = assay: Induction of cell cycle arrest in human MDA-MB-231 cells assessed as reduction in cyclin E1 expression at 1 to 4 uM measured after 24 hrs by immunoblotting assay; type: functional, cell-based; settings: dose 1-4 µM
MDA-MB-231 [24] = assay: Induction of apoptosis in human MDA-MB-231 cells assessed as increase in cleaved caspase 3 expression at 1 to 4 uM incubated for 24 hrs by Western blotting analysis; type: functional, cell-based; settings: dose 1-4 µM
MDA-MB-231 [25] = assay: Inhibition of colony formation in human MDA-MB-231 cells assessed as reduction in colony formation treated for 10 days medium refreshed every two days by crustal violet based assay; type: functional, cell-based; settings: time 10.0 day
MDA-MB-231 [26] = assay: Anti-invasive activity in human MDA-MB-231 cells assessed as reduction in cell invasion incubated for 24 hrs by Transwell assay; type: functional, cell-based; settings: dose 3-6 µM
MDA-MB-231 [27] = assay: Induction of apoptosis in human MDA-MB-231 cells assessed as increase in cleaved PARP expression at 1 to 4 uM incubated for 24 hrs by Western blotting analysis; type: functional, cell-based; settings: dose 1-4 µM

Question: For O=C1C[C@@H](c2ccccc2)Oc2cc(O)c([C@H](/C=C/C[C@@H](O)CCc3ccccc3)c3ccccc3)c(O)c21, which IC50 (HeLa) is on record?
Answer: The IC50 was 2.2 µM.

Question: What about the IC50 (MCF7) of the same compound?
Answer: Its IC50 is 8.64 µM.

Question: What about the Activity (MDA-MB-231 [1]) of the same compound?
Answer: Its Activity is “Dose-Dependent Effect”.

Question: And the Activity (MDA-MB-231 [2])?
Answer: Its Activity is “Active”.

Question: And the Activity (MDA-MB-231 [3])?
Answer: Its Activity is “Active”.

Question: What about the Activity (MDA-MB-231 [4]) of the same compound?
Answer: Its Activity is “Dose-Dependent Effect”.

Question: And the Activity (MDA-MB-231 [5])?
Answer: Its Activity is “Active”.

Question: And the Activity (MDA-MB-231 [6])?
Answer: The Activity was “Active”.

Question: What about the Activity (4T1 [7]) of the same compound?
Answer: Its Activity is “Active”.

Question: And the inhibition (4T1 [8])?
Answer: Its inhibition is “Active”.

Question: And the Activity (4T1 [9])?
Answer: Its Activity is “Active”.

Question: What about the Activity (MDA-MB-231 [10]) of the same compound?
Answer: The Activity was “inactive”.

Question: What about the Activity (MDA-MB-231 [11]) of the same compound?
Answer: The Activity was “Dose-Dependent Effect”.

Question: And the Activity (MDA-MB-231 [12])?
Answer: Its Activity is 49.59%.

Question: What about the Activity (MDA-MB-231 [13]) of the same compound?
Answer: Its Activity is “Dose-Dependent Effect”.

Question: What about the Activity (MDA-MB-231 [14]) of the same compound?
Answer: The Activity was “inactive”.

Question: What about the IC50 [15] of the same compound?
Answer: The IC50 was 5.27 µM.

Question: And the Activity (MDA-MB-231 [16])?
Answer: The Activity was “Active”.

Question: What about the Activity (MDA-MB-231 [17]) of the same compound?
Answer: The Activity was “Active”.

Question: And the Activity (MDA-MB-231 [18])?
Answer: The Activity was “Active”.

Question: And the Activity (4T1 [19])?
Answer: The Activity was 48.24%.

Question: And the Activity (4T1 [20])?
Answer: Its Activity is 6.84%.

Question: What about the IC50 (A549) of the same compound?
Answer: Its IC50 is 3.21 µM.

Question: And the Activity (MDA-MB-231 [21])?
Answer: Its Activity is “Dose-Dependent Effect”.

Question: And the inhibition (4T1 [22])?
Answer: Its inhibition is “Dose-Dependent Effect”.

Question: What about the Activity (MDA-MB-231 [23]) of the same compound?
Answer: The Activity was “Active”.

Question: And the Activity (MDA-MB-231 [24])?
Answer: Its Activity is “Active”.

Question: What about the inhibition (MDA-MB-231 [25]) of the same compound?
Answer: The inhibition was “Dose-Dependent Effect”.

Question: What about the Activity (MDA-MB-231 [26]) of the same compound?
Answer: The Activity was “Dose-Dependent Effect”.

Question: What about the Activity (MDA-MB-231 [27]) of the same compound?
Answer: Its Activity is “Active”.
